Results reported in patent US10485841B2, “Method for producing dry extracts” (Bionorica SE, priority 2011, dated 2019).

Key:
[1] = system: carrageen-induced paw oedema; assay: carrageen-induced paw oedema in rats (Example 2); format: in vivo, rat; settings: 30 minutes following carrageen injection, FIG. 3
Description: (§1) The anti-inflammatory activity of Sinupret could be confirmed in the animal model. For example, carrageen-induced paw oedema in rats (Male Wistar Han rats, 220-230 g) was selected as the test model. In this model, it was possible to examine the anti-inflammatory effect of test substances by measuring their inhibitory effect on the paw oedema or pleuritis caused by carrageen. The following were used as reference substances: (RS)-2-[4-(2-methylpropyl)phenyl]propanoic acid (Ibuprofen®) and 2-[1-(4-chlorobenzoyl)-5-methoxy-2-methyl-1H-indol-3-yl] acetic acid (indomethacin, “indo”). In the present tests, groups of 10 rats in each case were treated either with Ibuprofen®, indomethacin, Sinupret® dry extract (SIN TR) or Sinupret® drug mixture (SIN, as commercially available) and were injected one hour later with carrageen. The inhibition of the oedema formation by the test and reference substances was determined at various moments in time after carrageen injection, wherein the paw volume of animals treated only with carrageen was used as a control (vehicle=blank control). The results of these tests are presented in Tables 1 and 2 and in FIGS. 3 to 6 and will be explained hereinafter.

[2] = system: carrageen-induced pleuritis; assay: carrageen-induced pleuritis in rats; format: in vivo, rat; settings: 5 mg/kg
Description: as §1
Rats (10 per group) were each treated with 100 mg/kg or 500 mg/kg of SIN and by way of comparison with 5 mg/kg of indomethacin and blank and were injected 1 hour later with carrageen.
“Inflammatory cells” correlates to PMN (polymorphonuclear neutrophils) accumulation/infiltration.
Statistics: average+/−SEM, n=10, ** p<0.01; ***p<0.001 vs vehicle (blank) (Tukey Test), p<0.05 is statistically significant.
Rats (10 per group) were each treated with 100 mg/kg or 500 mg/kg of SIN TR and by way of comparison with 5 mg/kg of indomethacin and blank and were injected one hour later with carrageen.

[3] = 4 h after carrageen, mean ± SEM, n=10

Which “inhibition of paw oedema” value [1] does the source give for `CC(C)Cc1ccc(C(C)C(=O)O)cc1` (racemic) [Ibuprofen®, (RS)-2-[4-(2-methylpropyl)phenyl]propanoic acid] here?
Its value is “still did not show any anti-inflammatory effect”.

With `COc1ccc2c(c1)c(CC(=O)O)c(C)n2C(=O)c1ccc(Cl)cc1` [Indomethacin, 2-[1-(4-chlorobenzoyl)-5-methoxy-2-methyl-1H-indol-3-yl] acetic acid] as the molecule, how does the “exudate volume, inhibition vs vehicle” value ([2]; 4 h) read?
The value was “(96%)”.

And the “inflammatory cells, inhibition vs vehicle” value ([2]; 4 h)?
Its value is “(70%)”.

And the IL1β [2, 3]?
The IL1β was 3.17 ± 0.18 ng/rat.

And the LTB4 [2, 3]?
The LTB4 was 0.43 ± 0.02 ng/rat.

What about the PGE2 [2, 3] of the same molecule?
Its PGE2 is <0.125 ng/rat.

And the TNFα [2, 3]?
Its TNFα is 5.48 ± 0.28 ng/rat.

And the exudate volume [2, 3]?
Its exudate volume is 0.009 ± 0.003 mL.

And the “inflammatory cells × 10^6” value [2, 3]?
The value was 11.4 ± 0.93 × 10^6.
